We go through 31 compounds from patent US20050130989A1, “N-arylheteroaromatic products compositions containing them and use thereof” (Aventis Pharma S. A., priority 2003, published 2005).

A value given as a limit tells only on which side of the number the result lay.

For one test, the target named is T1, tubulin (Sus scrofa, UniProt P02550+P02554).
T1 construct: Tubulin is purified from pig brain according to published methods; from tissue; host or cells: pig brain
Briefly: Evaluation of the inhibition of tubulin polymerization (turbidimetry). It counts as biochemical, pig. The conditions noted are these: tubulin 10 μm (1 mg/ml), 37° C., turbidity at 350 nm; concentration that inhibits the rate of polymerization by 50%; read-out: Inhibition of tubulin polymerization IC 50 (μm). As to the method:
Tubulin is purified from pig brain according to published methods (Shelanski et al., 1973, Proc. Natl. Acad. Sci. USA, 70, 765-768. Weingarten et al., 1975, Proc. Natl. Acad. Sci. USA, 72, 1858-1862). Briefly, the brains are ground and centrifuged in an extraction buffer. The tubulin contained in the supernatant of the extract undergoes two successive cycles of polymerization at 37° C. and depolymerization at 4° C., before being separated from the MAPs (Microtubule Associated Proteins) by chromatography on a phosphocellulose P11 column (Whatman). The tubulin thus isolated is more than 95% pure. It is stored in a buffer known as RB/2 30% glycerol, the composition of which is 50 mM MES-NaOH [2-(N-morpholino)ethanesulfonic acid], pH 6.8; 0.25 mM MgCl2; 0.5 mM EGTA; 30% glycerol (v/v), 0.2 mM GTP (guanosine-5′-triphosphate).
The polymerization of tubulin to microtubules is monitored by turbidimetry as follows: the tubulin is adjusted to a concentration of 10 μm (1 mg/ml) in RB/2 30% glycerol buffer to which 1 mM GTP and 6 mM MgCl2 are added. The polymerization is triggered by an increase in temperature from 6° C. to 37° C. in a cuvette with an optical path length of 1 cm, placed in a UVIKON 931 spectrophotometer (Kontron) equipped with a thermostatically maintained cuvette holder. The increase in the turbidity of the solution is monitored at 350 nm.
The products are dissolved at 10 mM in DMSO and added at variable concentrations (0.5 to 10 μm) to the tubulin solution before polymerization. The IC50 value is defined as the concentration of product that inhibits the rate of polymerization by 50%.

In another test the test system is HCT116 cells. Briefly: Inhibition of proliferation of the human colon tumor line HCT116 ([14C]-thymidine incorporation). In kind it is cell-based. The conditions noted are these: Homo sapiens, HCT-116, 48 h, 48 hours at 37° C., read-out: Inhibition of HCT116 proliferation IC 50 (μm). As to the method: The proliferation of HCT116 cells is evaluated by measuring the incorporation of [^14C]-thymidine in the following manner. The HCT 116 cells (obtained from the ATCC) are cultured in a DMEM medium (Gibco) containing 10% fetal calf serum and antibiotics (1% penicillin, 1% streptomycin). To perform the proliferation test, the cells are inoculated in cytostar 96-well microplates (Amersham), at a rate of 5000 cells per well. [^14C]-thymidine (0.1 μCi/well) and the products to be evaluated are then added. Variable concentrations of products up to 10 μm are used; the DMSO (solvent used to dissolve the products) should not exceed 0.5% in the medium. 48 hours after incubation at 37° C., the radioactivity incorporated into the cells is measured by counting the plate in a TRI-LUX counter (Wallac). The IC50 is defined as the concentration of product that reduces the radioactivity by 50% compared with an untreated control. A product whose IC50 is less than 3 μm is considered cytotoxic.

T1 sequence (P02550 whole entry): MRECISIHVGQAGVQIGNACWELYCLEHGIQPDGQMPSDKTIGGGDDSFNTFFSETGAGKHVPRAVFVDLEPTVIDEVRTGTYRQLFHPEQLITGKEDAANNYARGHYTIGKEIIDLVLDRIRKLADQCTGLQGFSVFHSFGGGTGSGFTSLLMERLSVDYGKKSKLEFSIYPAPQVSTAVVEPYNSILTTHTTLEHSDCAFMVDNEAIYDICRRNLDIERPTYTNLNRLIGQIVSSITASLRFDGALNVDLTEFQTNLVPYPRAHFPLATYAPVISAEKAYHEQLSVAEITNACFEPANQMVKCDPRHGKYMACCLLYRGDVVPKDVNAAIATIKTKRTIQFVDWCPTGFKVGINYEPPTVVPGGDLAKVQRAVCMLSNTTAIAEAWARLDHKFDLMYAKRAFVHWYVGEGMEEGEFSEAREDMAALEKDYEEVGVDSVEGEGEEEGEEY
T1 sequence (P02554 whole entry): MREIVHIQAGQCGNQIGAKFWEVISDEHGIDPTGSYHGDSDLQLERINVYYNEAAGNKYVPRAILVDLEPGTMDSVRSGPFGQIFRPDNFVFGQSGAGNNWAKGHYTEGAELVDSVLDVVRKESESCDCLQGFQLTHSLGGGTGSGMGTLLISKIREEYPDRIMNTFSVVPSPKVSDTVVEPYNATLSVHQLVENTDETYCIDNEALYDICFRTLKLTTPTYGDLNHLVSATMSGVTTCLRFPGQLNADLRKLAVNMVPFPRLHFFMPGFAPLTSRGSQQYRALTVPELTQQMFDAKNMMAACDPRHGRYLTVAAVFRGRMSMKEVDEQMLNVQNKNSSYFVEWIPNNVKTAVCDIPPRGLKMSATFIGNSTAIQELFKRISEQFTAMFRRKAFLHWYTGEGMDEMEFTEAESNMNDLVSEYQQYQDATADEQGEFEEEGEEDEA

As for `COc1cc(OC)cc(N2CCN(C(=O)c3cc(N4CCOCC4)nn3-c3ccccc3)CC2)c1` [Example E96, [4-(3,5-Dimethoxyphenyl)piperazin-1-yl][5-(morpholin-4-yl)-2-phenyl-2H-pyrazol-3-yl]methanone], the results for the IC50 on tubulin and with HCT116 cells were 11400 nM and 73.3 nM, respectively.

Consider `Cc1cc(C(=O)N2CCN(c3cccc([N+](=O)[O-])c3)CC2)n(-c2ccccc2)n1` [Example E5, [4-(3-Nitrophenyl)piperazin-1-yl](5-methyl-2-phenyl-2H-pyrazol-3-yl)-methanone], for which the figures for the IC50 at tubulin and with HCT116 cells were 800 nM and 3 nM, respectively.

With `Cc1cc(C(=O)N2CCN(c3ccc(Cl)c(Cl)c3)CC2)n(-c2ccc(F)cc2)n1` [3/146], the figures for the IC50 at tubulin and in the test with HCT116 cells were 1300 nM and 43 nM, respectively.

On to `Cc1cc(C(=O)N2CCN(c3ccccc3C)CC2)n(-c2cccc(Cl)c2)n1` [3/67], for which the IC50 was found to be 2700 nM on tubulin and 127 nM with HCT116 cells.

`Cc1cccc(-n2nc(C)cc2C(=O)N2CCN(c3ccc(Cl)cc3)CC2)c1` [3/52]: the results for the IC50 on tubulin and in the test with HCT116 cells were 13000 nM and 256 nM, respectively.

Regarding `COc1cccc(N2CCN(C(=O)c3cc(C)nn3-c3ccccc3)CC2)c1` [3/10], the IC50 on tubulin came out at 2000 nM; with HCT116 cells it was 25 nM.

Consider `COc1ccccc1N1CCN(C(=O)c2cc(C)nn2-c2ccccc2)CC1` [3/7], for which the IC50 worked out at 5600 nM on tubulin and 40 nM with HCT116 cells.

Turning to `Cc1cc(C(=O)N2CCN(c3cccc(NCCO)c3)CC2)n(-c2ccccc2)n1` [Example E103, {4-[3-(2-Hydroxyethylamino)phenyl]piperazin-1-yl}-(5-methyl-2-phenyl-2H-pyrazol-3-yl)methanone], the IC50 on tubulin is 1000 nM; with HCT116 cells, 16.7 nM.

With `N#Cc1cccc(-n2nc(C(F)(F)F)cc2C(=O)N2CCN(c3cccc(Cl)c3)CC2)c1` [Example E55, 3-{5-[4-(3-Chlorophenyl)piperazine-1-carbonyl]-3-trifluoromethylpyrazol-1-yl}benzonitrile], the IC50 on tubulin worked out at 3600 nM; in the test on HCT116 cells, 1340 nM.

For the compound `COc1ccc(Cl)cc1N1CCN(C(=O)c2cc(C)nn2-c2ccc(Cl)cc2)CC1` [3/75], the IC50 on tubulin turned out to be 17000 nM; with HCT116 cells it was 468 nM.

For `COc1ccc(Cl)cc1N1CCN(C(=O)c2cc(C)nn2-c2ccccc2F)CC1` [3/88], the IC50 is 6000 nM at tubulin and 60.5 nM with HCT116 cells.

For the compound `Cc1cccc(N2CCN(C(=O)c3cc(C)nn3-c3ccc(F)cc3)CC2)c1` [3/57], the figures for the IC50 on tubulin and with HCT116 cells were 1400 nM and 15 nM, respectively.

On to `Cc1cc(C(=O)N2CCN(c3cccc(-c4ccccc4)c3)CC2)n(-c2ccccc2)n1` [Example E24, [4-(Biphenyl-3-yl)piperazin-1-yl)(5-methyl-2-phenyl-2H-pyrazol-3-yl)methanone], for which the IC50 on tubulin amounted to 1700 nM; in the test with HCT116 cells it was 312 nM.

Take `Cc1cc(C(=O)N2CCN(c3cccc(Cl)c3)CC2)n(C2CCCCC2)n1` [Example E48, [4-(3-Chlorophenyl)piperazin-1-yl](2-cyclohexyl-5-methyl-2H-pyrazol-3-yl)-methanone]: the IC50 at tubulin amounted to 3260 nM; in the test with HCT116 cells, 490 nM.

For `COc1cc(OC)cc(N2CCN(C(=O)c3cc(C)nn3-c3ccccc3)CC2)c1` [Example E20, [4-(3,5-Dimethoxyphenyl)piperazin-1-yl](5-methyl-2-phenyl-2H-pyrazol-3-yl)-methanone], the IC50 at tubulin was determined as 290 nM; with HCT116 cells, 1.5 nM.

Consider `CCOc1ccccc1N1CCN(C(=O)c2cc(C)nn2-c2cccc(F)c2)CC1` [3/98], for which the figures for the IC50 at tubulin and with HCT116 cells were 7000 nM and 157 nM, respectively.

As to `Cc1cc(C(=O)N2CCN(c3ccccc3)CC2)n(-c2ccccc2)n1` [3/6], the figures for the IC50 on tubulin and in the test with HCT116 cells were 4500 nM and 177 nM, respectively.

Regarding `Cc1cc(C(=O)N2CCN(c3ccc4c(c3)OCCO4)CC2)n(-c2ccccc2)n1` [3/14], the IC50 was determined as 15000 nM at tubulin and 352 nM in the test on HCT116 cells.

For `Cc1cc(C(=O)N2CCN(c3cccc(NC(=O)CCO)c3)CC2)n(-c2ccccc2)n1` [Example E128, 3-Hydroxy-N-{3-[4-(5-methyl-2-phenyl-2H-pyrazole-3-carbonyl)piperazin-1-yl]-phenyl}propionamide], the IC50 at tubulin was 3000 nM; with HCT116 cells, 120 nM.

With `Cc1cc(C(=S)N2CCN(c3cccc(Cl)c3)CC2)n(-c2ccccc2)n1` [Example E7, [4-(3-Chlorophenyl)piperazin-1-yl](5-methyl-2-phenyl-2H-pyrazol-3-yl)-methanethione], the IC50 on tubulin was 1400 nM; with HCT116 cells it was 11 nM.

`Cc1cc(C(=O)N2CCN(c3cc(Cl)cc(Cl)c3)CC2)n(-c2ccccc2)n1` [Example E2, [4-(3,5-Dichlorophenyl)piperazin-1-yl](5-methyl-2-phenyl-2H-pyrazol-3-yl)methanone]: the IC50 at tubulin stood at 1500 nM; in the test on HCT116 cells it was 0.1 nM.

For the compound `CSc1ccccc1N1CCN(C(=O)c2cc(C)nn2-c2cccc(C)c2)CC1` [3/51], the IC50 on tubulin stood at 2000 nM; with HCT116 cells, 37 nM.

In the case of `Cc1cc(C(=O)N2CCN(c3cccc(Cl)c3)CC2)n(-c2cc(Cl)ccc2Cl)n1` [Example E44, [4-(3-Chlorophenyl)piperazin-1-yl][2-(2,5-dichlorophenyl)-5-methyl-2H-pyrazol-3-yl]methanone], the values for the IC50 on tubulin and in the test on HCT116 cells were 1680 nM and 236 nM, respectively.

For `O=C(c1cc(COCc2ccccc2)nn1-c1ccccc1)N1CCN(c2cccc(Cl)c2)CC1` [Example E80, (5-Benzyloxymethyl-2-phenyl-2H-pyrazol-3-yl)[4-(3-chlorophenyl)piperazin-1-yl]methanone], the IC50 on tubulin was found to be 4400 nM; in the test with HCT116 cells, 1130 nM.

On to `O=C(c1cc(Br)nn1-c1ccccc1)N1CCN(c2cccc(Cl)c2)CC1` [Example E65, (5-Bromo-2-phenyl-2H-pyrazol-3-yl)[4-(3-chlorophenyl)piperazin-1-yl]-methanone], for which the IC50 at tubulin was determined as 1700 nM; in the test on HCT116 cells, 10.6 nM.

`Cc1cc(C(=O)N2CCN(c3ccc(C)c(C)c3)CC2)n(-c2cccc(Cl)c2)n1` [3/66]: the IC50 at tubulin worked out at 2000 nM; in the test with HCT116 cells, 73 nM.

With `Cc1cc(C(=O)N2CCN(c3nccs3)CC2)n(-c2ccccc2)n1` [Example E115], the IC50 was less than 25000 nM on tubulin and 3240 nM in the test on HCT116 cells.

As to `C/C=C/c1cc(C(=O)N2CCN(c3cc(OC)cc(OC)c3)CC2)n(-c2ccccc2)n1` [Example E86], the IC50 at tubulin is 870 nM; in the test with HCT116 cells it was 6.8 nM.

As for `COc1cc(OC)cc(N2CCN(C(=O)c3cc(CO)nn3-c3ccccc3)CC2)c1` [Example E73, [4-(3,5-Dimethoxyphenyl)piperazin-1-yl](3-hydroxymethyl-1-phenyl-1H-pyrazol-5-yl)methanone], the IC50 at tubulin worked out at 990 nM; in the test with HCT116 cells, 6.9 nM.

Consider `Cc1nccn1Cc1cc(C(=O)N2CCN(c3cccc(Cl)c3)CC2)n(-c2ccccc2)n1` [Example E75, [4-(3-Chlorophenyl)piperazin-1-yl][5-(2-methylimidazol-1-ylmethyl)-2-phenyl-2H-pyrazol-3-yl]methanone], for which the IC50 at tubulin is 5100 nM; in the test on HCT116 cells it was 61.2 nM.

As to `COc1ccc(Cl)cc1N1CCN(C(=O)c2cc(C)nn2-c2ccc(F)cc2)CC1` [3/60], the IC50 was determined as 1300 nM on tubulin and 8.6 nM in the test with HCT116 cells.
